Legend:
Test in all cases: Kinase panel radiometric filter binding (33P-ATP)
Type in all cases: biochemical
NUAK1 = biological target: T1, NUAK1 (Homo sapiens, UniProt O60285); design: purchased MRC PPU; dose or concentration left out as unconfirmed
T1 sequence (O60285 1-661): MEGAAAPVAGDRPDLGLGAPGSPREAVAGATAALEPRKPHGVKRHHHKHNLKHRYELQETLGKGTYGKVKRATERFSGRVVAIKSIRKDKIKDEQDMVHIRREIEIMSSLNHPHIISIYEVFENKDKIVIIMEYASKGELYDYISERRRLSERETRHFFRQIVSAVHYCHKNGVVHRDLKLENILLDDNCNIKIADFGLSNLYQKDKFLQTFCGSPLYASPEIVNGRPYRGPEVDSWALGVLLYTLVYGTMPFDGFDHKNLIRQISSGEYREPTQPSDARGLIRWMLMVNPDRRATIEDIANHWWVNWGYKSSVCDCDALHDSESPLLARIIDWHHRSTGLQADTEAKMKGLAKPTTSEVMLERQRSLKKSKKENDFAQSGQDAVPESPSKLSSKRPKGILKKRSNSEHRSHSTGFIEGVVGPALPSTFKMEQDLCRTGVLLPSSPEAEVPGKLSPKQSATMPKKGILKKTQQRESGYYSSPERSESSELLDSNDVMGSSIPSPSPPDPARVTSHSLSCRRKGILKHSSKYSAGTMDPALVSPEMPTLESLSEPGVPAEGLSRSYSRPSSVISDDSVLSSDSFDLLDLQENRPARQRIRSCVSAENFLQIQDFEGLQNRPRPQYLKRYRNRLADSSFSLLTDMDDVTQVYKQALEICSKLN
Description: (§1) Table S4: AMPKA kinase activity data (ADP-Glo assay)
(§2) Compound pIC50 (Fold selectivity
(§3) Table S5. Kinase selectivity screening for 9 and 24 at 1 µM against a general kinase panel of 140 targets
(§4) in radiometric filter binding assay using 33P-γ−ATP at the MRC PPU International Centre for Kinase
(§5) Profiling, University of Dundee. pIC50 values were determined for compounds with <20% activity
(§6) Kinase activity s.d. pIC50 activity s.d. pIC50

HIPK3 = HIPK3 (Homo sapiens, UniProt Q9H422); design: dose or concentration left out as unconfirmed
Description: as §1, §2, §3, §4, §5, §6

MLK1 = MLK1 (Homo sapiens, UniProt P80192); design: dose or concentration left out as unconfirmed
Description: as §1, §2, §3, §4, §5, §6

EF2K = EF2K (Homo sapiens, UniProt O00418); design: dose or concentration left out as unconfirmed
Description: as §1, §2, §3, §4, §5, §6

EPH-B1 = EPH-B1 (Homo sapiens, UniProt P54762); design: dose or concentration left out as unconfirmed
Description: as §1, §2, §3, §4, §5, §6

NEK2a = NEK2a (Homo sapiens, UniProt P51955); design: dose or concentration left out as unconfirmed
Description: as §1, §2, §3, §4, §5, §6

CHK2 = CHK2 (Homo sapiens, UniProt O96017); design: dose or concentration left out as unconfirmed
Description: as §1, §2, §3, §4, §5, §6

NEK6 = NEK6 (Homo sapiens, UniProt Q9HC98); design: dose or concentration left out as unconfirmed
Description: as §1, §2, §3, §4, §5, §6

MSK1 = MSK1 (Homo sapiens, UniProt O75582); design: dose or concentration left out as unconfirmed
Description: as §1, §2, §3, §4, §5, §6

PKD1 = PKD1 (Homo sapiens, UniProt Q15139); design: dose or concentration left out as unconfirmed
Description: as §1, §2, §3, §4, §5, §6

ASK1 = ASK1 (Homo sapiens, UniProt Q99683); design: dose or concentration left out as unconfirmed
Description: as §1, §2, §3, §4, §5, §6

SYK = SYK (Homo sapiens, UniProt P43405); design: dose or concentration left out as unconfirmed
Description: as §1, §2, §3, §4, §5, §6

MNK1 = MNK1 (Homo sapiens, UniProt Q9BUB5); design: dose or concentration left out as unconfirmed
Description: as §1, §2, §3, §4, §5, §6

PLK1 = PLK1 (Homo sapiens, UniProt P53350); design: dose or concentration left out as unconfirmed
Description: as §1, §2, §3, §4, §5, §6

BRSK2 = BRSK2 (Homo sapiens, UniProt Q8IWQ3); design: dose or concentration left out as unconfirmed
Description: as §1, §2, §3, §4, §5, §6

MEKK1 = MEKK1 (Homo sapiens, UniProt Q13233); design: dose or concentration left out as unconfirmed
Description: as §1, §2, §3, §4, §5, §6

MARK3 = biological target: T2, MARK3 (Homo sapiens, UniProt P27448); design: dose or concentration left out as unconfirmed
T2 construct: purchased MRC PPU
Description: as §1, §2, §3, §4, §5, §6

IRAK1 = IRAK1 (Homo sapiens, UniProt P51617); design: dose or concentration left out as unconfirmed
Description: as §1, §2, §3, §4, §5, §6

RIPK2 = RIPK2 (Homo sapiens, UniProt O43353); design: dose or concentration left out as unconfirmed
Description: as §1, §2, §3, §4, §5, §6

TESK1 = TESK1 (Homo sapiens, UniProt Q15569); design: dose or concentration left out as unconfirmed
Description: as §1, §2, §3, §4, §5, §6

DYRK3 = DYRK3 (Homo sapiens, UniProt O43781); design: dose or concentration left out as unconfirmed
Description: as §1, §2, §3, §4, §5, §6

RSK2 = RSK2 (Homo sapiens, UniProt P51812); design: dose or concentration left out as unconfirmed
Description: as §1, §2, §3, §4, §5, §6

EIF2AK3 = EIF2AK3 (Homo sapiens, UniProt Q9NZJ5); design: dose or concentration left out as unconfirmed
Description: as §1, §2, §3, §4, §5, §6

PHK = test system: PHK; design: dose or concentration left out as unconfirmed
Description: as §1, §2, §3, §4, §5, §6

MNK2 = MNK2 (Homo sapiens, UniProt Q9HBH9); design: dose or concentration left out as unconfirmed
Description: as §1, §2, §3, §4, §5, §6

CAMK1 = CAMK1 (Homo sapiens, UniProt Q14012); design: dose or concentration left out as unconfirmed
Description: as §1, §2, §3, §4, §5, §6

JNK3 = JNK3 (Homo sapiens, UniProt P53779); design: dose or concentration left out as unconfirmed
Description: as §1, §2, §3, §4, §5, §6

HIPK2 = HIPK2 (Homo sapiens, UniProt Q9H2X6); design: dose or concentration left out as unconfirmed
Description: as §1, §2, §3, §4, §5, §6

NEK6, sequence (Q9HC98 whole entry): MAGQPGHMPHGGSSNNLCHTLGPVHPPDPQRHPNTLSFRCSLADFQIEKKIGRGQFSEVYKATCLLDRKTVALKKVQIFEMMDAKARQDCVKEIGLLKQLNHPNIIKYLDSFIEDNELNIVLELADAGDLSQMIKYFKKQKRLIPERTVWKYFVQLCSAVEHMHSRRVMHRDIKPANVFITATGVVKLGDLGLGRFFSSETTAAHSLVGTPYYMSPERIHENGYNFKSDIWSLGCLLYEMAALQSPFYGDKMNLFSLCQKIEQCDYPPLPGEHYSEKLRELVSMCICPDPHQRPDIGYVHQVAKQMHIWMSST
HIPK2, sequence (Q9H2X6 whole entry): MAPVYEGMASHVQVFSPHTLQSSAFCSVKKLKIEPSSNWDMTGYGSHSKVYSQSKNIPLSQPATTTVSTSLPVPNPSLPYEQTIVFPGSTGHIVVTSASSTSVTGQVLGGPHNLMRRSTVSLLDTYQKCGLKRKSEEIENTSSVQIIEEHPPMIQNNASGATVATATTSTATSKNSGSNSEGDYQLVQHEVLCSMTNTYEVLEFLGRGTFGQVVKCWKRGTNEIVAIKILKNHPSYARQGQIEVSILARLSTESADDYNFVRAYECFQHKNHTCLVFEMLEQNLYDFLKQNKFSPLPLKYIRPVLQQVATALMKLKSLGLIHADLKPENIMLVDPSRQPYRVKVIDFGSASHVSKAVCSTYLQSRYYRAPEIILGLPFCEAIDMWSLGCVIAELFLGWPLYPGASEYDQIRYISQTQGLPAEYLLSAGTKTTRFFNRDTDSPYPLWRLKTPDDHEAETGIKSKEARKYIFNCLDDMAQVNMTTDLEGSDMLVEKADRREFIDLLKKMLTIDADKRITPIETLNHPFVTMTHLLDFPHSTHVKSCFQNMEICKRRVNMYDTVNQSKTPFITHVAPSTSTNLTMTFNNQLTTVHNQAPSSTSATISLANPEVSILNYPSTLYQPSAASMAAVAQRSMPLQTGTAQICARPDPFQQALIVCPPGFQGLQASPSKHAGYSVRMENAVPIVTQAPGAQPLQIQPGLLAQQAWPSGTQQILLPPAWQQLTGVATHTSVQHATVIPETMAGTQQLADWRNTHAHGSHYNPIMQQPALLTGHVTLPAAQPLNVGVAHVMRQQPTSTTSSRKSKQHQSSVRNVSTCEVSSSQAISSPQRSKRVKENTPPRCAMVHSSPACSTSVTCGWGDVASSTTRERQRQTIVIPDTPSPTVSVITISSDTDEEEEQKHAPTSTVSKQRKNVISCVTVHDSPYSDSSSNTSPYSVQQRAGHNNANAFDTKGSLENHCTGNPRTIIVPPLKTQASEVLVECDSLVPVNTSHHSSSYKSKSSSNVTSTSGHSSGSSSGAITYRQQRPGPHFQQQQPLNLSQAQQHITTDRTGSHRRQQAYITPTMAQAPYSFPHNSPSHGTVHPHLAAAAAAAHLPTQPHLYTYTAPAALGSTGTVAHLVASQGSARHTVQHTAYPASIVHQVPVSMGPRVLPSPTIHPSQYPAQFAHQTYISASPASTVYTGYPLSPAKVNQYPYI
RIPK2, sequence (O43353 whole entry): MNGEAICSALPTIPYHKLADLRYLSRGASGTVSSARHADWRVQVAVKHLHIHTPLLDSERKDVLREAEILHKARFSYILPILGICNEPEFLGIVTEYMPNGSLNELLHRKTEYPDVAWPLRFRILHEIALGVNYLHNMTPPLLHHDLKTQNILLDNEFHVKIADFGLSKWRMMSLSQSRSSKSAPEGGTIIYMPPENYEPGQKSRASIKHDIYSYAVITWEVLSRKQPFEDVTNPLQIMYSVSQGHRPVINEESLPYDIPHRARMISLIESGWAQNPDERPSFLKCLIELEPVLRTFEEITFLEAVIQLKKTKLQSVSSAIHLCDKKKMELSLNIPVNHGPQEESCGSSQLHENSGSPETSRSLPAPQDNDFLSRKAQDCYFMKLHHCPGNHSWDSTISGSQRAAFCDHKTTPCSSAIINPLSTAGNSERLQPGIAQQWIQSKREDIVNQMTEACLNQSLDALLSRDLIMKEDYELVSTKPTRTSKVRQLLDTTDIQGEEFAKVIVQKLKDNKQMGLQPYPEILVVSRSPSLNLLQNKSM
NEK2a, sequence (P51955 whole entry): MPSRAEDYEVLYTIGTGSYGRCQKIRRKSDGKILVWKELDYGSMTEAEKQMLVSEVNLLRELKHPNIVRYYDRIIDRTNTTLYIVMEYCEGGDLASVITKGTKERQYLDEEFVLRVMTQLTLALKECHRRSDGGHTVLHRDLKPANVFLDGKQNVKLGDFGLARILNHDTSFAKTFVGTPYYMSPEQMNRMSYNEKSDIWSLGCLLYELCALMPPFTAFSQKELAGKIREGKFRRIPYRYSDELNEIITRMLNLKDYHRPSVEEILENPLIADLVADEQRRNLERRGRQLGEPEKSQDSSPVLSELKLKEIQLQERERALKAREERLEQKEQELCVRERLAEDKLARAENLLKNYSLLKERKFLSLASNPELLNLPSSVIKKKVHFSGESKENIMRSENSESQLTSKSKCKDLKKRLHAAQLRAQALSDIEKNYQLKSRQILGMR
T2 sequence (P27448 whole entry): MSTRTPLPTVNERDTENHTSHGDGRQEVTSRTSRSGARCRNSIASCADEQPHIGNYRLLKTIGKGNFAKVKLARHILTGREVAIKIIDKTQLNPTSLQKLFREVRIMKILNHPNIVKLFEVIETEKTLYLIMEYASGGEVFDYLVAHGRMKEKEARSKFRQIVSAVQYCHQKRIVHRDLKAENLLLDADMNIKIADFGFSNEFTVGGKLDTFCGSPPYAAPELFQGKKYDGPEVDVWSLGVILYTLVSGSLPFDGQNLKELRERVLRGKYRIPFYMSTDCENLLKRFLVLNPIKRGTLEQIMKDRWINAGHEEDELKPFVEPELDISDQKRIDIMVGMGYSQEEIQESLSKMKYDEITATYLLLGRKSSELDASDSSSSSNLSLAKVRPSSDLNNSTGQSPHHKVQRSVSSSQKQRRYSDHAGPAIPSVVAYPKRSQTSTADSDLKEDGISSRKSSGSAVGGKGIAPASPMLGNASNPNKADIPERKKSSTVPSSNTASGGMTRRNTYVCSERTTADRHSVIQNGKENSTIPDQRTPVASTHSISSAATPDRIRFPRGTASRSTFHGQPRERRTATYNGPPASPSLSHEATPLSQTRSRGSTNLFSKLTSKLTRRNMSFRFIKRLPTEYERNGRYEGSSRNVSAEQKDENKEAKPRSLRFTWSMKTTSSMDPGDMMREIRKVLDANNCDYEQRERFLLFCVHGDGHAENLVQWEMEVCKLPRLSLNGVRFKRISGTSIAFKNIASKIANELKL
MSK1, sequence (O75582 whole entry): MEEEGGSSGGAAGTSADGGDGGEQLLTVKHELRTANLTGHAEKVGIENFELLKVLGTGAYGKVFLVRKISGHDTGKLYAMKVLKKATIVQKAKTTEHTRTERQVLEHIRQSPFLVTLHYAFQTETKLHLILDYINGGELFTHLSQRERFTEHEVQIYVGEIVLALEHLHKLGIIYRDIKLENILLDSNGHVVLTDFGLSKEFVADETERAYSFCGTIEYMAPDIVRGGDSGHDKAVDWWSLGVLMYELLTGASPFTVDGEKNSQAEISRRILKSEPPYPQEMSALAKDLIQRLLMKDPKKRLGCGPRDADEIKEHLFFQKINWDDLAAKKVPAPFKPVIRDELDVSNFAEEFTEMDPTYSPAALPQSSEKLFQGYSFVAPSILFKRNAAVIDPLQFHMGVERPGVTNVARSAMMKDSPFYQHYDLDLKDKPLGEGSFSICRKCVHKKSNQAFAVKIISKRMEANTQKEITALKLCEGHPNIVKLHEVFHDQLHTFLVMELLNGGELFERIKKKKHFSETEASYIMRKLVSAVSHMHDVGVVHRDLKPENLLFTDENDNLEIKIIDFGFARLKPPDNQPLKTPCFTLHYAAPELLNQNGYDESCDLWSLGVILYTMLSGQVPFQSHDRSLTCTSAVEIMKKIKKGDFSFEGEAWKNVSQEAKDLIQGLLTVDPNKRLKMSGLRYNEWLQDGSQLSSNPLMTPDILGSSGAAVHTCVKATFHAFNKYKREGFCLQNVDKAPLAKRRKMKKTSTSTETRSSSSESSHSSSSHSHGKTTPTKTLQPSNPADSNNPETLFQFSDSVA
PLK1, sequence (P53350 whole entry): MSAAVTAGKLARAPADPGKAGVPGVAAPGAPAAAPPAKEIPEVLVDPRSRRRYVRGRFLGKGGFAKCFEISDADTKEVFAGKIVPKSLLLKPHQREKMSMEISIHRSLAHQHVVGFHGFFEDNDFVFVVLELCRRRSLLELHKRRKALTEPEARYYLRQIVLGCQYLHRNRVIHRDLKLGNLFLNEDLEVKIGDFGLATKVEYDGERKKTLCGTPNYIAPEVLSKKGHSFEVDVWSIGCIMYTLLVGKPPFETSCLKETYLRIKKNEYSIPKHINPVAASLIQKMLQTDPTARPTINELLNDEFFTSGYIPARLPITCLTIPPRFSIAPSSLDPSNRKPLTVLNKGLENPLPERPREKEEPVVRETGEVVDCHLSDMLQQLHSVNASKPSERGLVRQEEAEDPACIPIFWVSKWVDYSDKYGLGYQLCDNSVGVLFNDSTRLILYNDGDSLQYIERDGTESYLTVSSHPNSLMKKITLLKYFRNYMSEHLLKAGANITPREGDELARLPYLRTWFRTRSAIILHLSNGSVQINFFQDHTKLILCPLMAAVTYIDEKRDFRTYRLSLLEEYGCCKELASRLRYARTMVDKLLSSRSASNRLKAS
CAMK1, sequence (Q14012 whole entry): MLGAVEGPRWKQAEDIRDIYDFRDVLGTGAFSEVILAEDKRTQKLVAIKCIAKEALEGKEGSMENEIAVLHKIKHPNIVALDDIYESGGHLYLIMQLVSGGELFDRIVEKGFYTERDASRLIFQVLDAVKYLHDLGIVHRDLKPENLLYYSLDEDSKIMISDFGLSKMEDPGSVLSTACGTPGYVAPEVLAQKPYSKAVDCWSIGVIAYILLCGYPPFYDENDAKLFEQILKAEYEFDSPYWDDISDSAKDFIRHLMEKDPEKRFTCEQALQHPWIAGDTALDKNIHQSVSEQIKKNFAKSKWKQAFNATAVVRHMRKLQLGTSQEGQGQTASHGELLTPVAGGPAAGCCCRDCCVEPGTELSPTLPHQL

## Cc1cc(=O)n(C2CCCC2)c2nc(Nc3ccc(N4CC5CC(C4)N5C)cc3)ncc12 [Compound 9]
NUAK1
  % activity remaining: 5%
HIPK3
  % activity remaining: 112%
MLK1
  % activity remaining: 21%
EF2K
  % activity remaining: 72%
EPH-B1
  % activity remaining: 51%
NEK2a
  % activity remaining: 36%
CHK2
  % activity remaining: 72%
NEK6
  % activity remaining: 105%
MSK1
  % activity remaining: 61%
PKD1
  % activity remaining: 20%
ASK1
  % activity remaining: 97%
SYK
  % activity remaining: 49%
MNK1
  % activity remaining: 96%
PLK1
  % activity remaining: 32%
BRSK2
  % activity remaining: 90%
MEKK1
  % activity remaining: 85%
MARK3
  % activity remaining: 35%
IRAK1
  % activity remaining: 75%
RIPK2
  % activity remaining: 78%
TESK1
  % activity remaining: 96%
DYRK3
  % activity remaining: 74%
RSK2
  % activity remaining: 49%
EIF2AK3
  % activity remaining: 41%
PHK
  % activity remaining: 56%
MNK2
  % activity remaining: 56%
CAMK1
  % activity remaining: 102%
JNK3
  % activity remaining: 30%
HIPK2
  % activity remaining: 54%

## CN1C2CC1CN(c1ccc(Nc3ncc4ccn(CC5CCOCC5)c4n3)cc1)C2 [Compound 24]
NUAK1
  % activity remaining: 14%
HIPK3
  % activity remaining: 73%
MLK1
  % activity remaining: 33%
EF2K
  % activity remaining: 102%
EPH-B1
  % activity remaining: 87%
NEK2a
  % activity remaining: 77%
CHK2
  % activity remaining: 98%
NEK6
  % activity remaining: 98%
MSK1
  % activity remaining: 84%
PKD1
  % activity remaining: 54%
ASK1
  % activity remaining: 99%
SYK
  % activity remaining: 81%
MNK1
  % activity remaining: 72%
PLK1
  % activity remaining: 64%
BRSK2
  % activity remaining: 75%
MEKK1
  % activity remaining: 63%
MARK3
  % activity remaining: 104%
IRAK1
  % activity remaining: 71%
RIPK2
  % activity remaining: 73%
TESK1
  % activity remaining: 94%
DYRK3
  % activity remaining: 65%
RSK2
  % activity remaining: 73%
EIF2AK3
  % activity remaining: 86%
PHK
  % activity remaining: 92%
MNK2
  % activity remaining: 89%
CAMK1
  % activity remaining: 129%
JNK3
  % activity remaining: 107%
HIPK2
  % activity remaining: 85%

Source: publication PMC11831560, “Development of the Pyrido[2,3-d]pyrimidin-7(8H)-one Scaffold toward Potent and Selective NUAK1 Inhibitors” (ACS Medicinal Chemistry Letters, 2025)
